Measured values from USRE40594E1, “Inhibitors of the bitter taste response” (Mount Sinai School of Medicine of New York University, priority 1998, dated 2008).
Entries after “also recorded” stand apart in the source; their conditions may differ.

Experiments:
rhodopsin = target: T1, rhodopsin (Bos taurus, UniProt P02699); experiment: Rhodopsin-mediated activation of transducin (trypsin sensitivity assay, receptor specificity control); format: biochemical, bovine; conditions: 0.001 mM rhodopsin; AMP 0.25, 0.5, 1.25, 2.5, 5.0 mM; FIG. 1D
T1 construct: Rhodopsin was purified in the light as 6 M urea-washed bovine rod outer segments; from tissue; host or cells: bovine rod outer segments (6 M urea-washed)
Method: G Protein Activation Assays. Bovine (Bos primigenius) tongues were collected fresh from a local slaughterhouse and transported on ice to the laboratory. Circumvallate papillae were hand dissected, frozen in liquid nitrogen, and stored at −80° C. until use. The collected taste tissues were homogenized, particulates removed by centrifugation, and enriched taste cell membranes collected as described (Ming, D., et al., 1998, Proc. Natl. Acad. Sci. U.S.A. 95:8933-8938). The pelleted membranes were rinsed twice, resuspended in homogenization buffer lacking protease inhibitors, and further homogenized by 20 passages through a 25-gauge needle. Aliquots were either flash frozen or stored on ice until use. The concentration of protein in the membrane preparations was determined by the Peterson modification of the micro-Lowry method (Peterson, G. L., 1977, Anal. Biochem. 83:346-356). Activation of transducin was based on the published trypsin sensitivity procedure (Ming, D., et al., 1998, Proc. Natl. Acad. Sci. U.S.A. 95:8933-8938, Neer, E. J., et al., 1994, Methods Enzymol. 237:226-239). After the trypsin digestion, samples were diluted with Laemmli buffer (Laemmli. U. K., 1970, Nature (London) 227:680-685) and separated by SDS/PAGE by using a 4-20% gel and Tris-glycine buffer. […]

C57BL/6J mice = experiment: Forty-eight-hour two-bottle preference test (behavioral assay); format: in vivo
Method: Behavioral Assays. Multiple sets of male C57BL/6J mice from the Jackson Laboratory were tested. Each set (n=10) was tested with tastant±AMP or GMP. Between tests, mice were provided with acidified water (pH 4.5) for about 2 wk. Tested mice ranged in age from 8 to 20 wk. Mice were individually housed, provided with food ad libitum (Pico Lab Mouse Diet 20 no. 5058; PMI Feeds, St. Louis, Mo.) and presented with distilled water in two sipper bottles for 48 h before testing. During each 48-h test period, a given concentration of tastant was provided in one sipper bottle, whereas the other had distilled water. After 24 h, volumes consumed were recorded, the bottles refilled, and positions reversed (to control for positional cues). Tastants were presented in ascending concentration. Preference ratios were calculated as the fraction of tastant consumed as a percentage of the total volume of liquid consumed. Mean preference ratios and Student's t tests were calculated from total collected data.

[1] = test system: glossopharyngeal nerve responses of C57BL/6J mice; experiment: Glossopharyngeal nerve recording on lingual stimulation with tastants; format: in vivo
Method: Nerve Recording. Glossopharyngeal nerve responses were recorded from male C57BL/6J mice as previously described (Ninomiya, Y., et al., 1997, Am. J. Physiol. (London) 272:R1002-RI006). Each mouse was anesthetized with intraperitoneal injection of sodium pentobarbital (40-50 mg/kg) and maintained at a surgical level of anesthesis with supplemental injections of the drug. The trachea was cannulated, and the mouse was then fixed in the supine position with a head holder to allow dissection of the glossopharyngeal nerve. The hypoglossal nerve was transected bilaterally to prevent inadvertent tongue movements. The right glossopharyngeal nerve was exposed by removal of the digastric muscle and posterior horn of the hyoid bone. The glossopharyngeal nerve was then dissected free from underlying tissues and cut near its entrance to the posterior foramen lacerum. The entire nerve was placed on a silver wire electrode for whole nerve recording. An indifferent electrode was positioned nearby in the wound. […] Whole nerve responses were integrated by using an RMS-DC converter (Hendrick, Tallahassee, Fla.) with a time constant of 0.5 s. For chemical stimulation of the circumvallate and foliate papillae, an incision was made on each side of the animal's face from the comer of the mouth to just above the angle of the jaw, the papillae were exposed, and their trenches opened via slight tension applied through a small suture sewn in the tip of the tongue. Tastant solutions were delivered to the tongue by gravity flow, and flowed over the tongue for a controlled period. The stability of each preparation was monitored by the periodic application of 0.1 M NH4Cl. A recording was considered to be stable when the 0.1 M NH4Cl response magnitudes at the beginning and end of each stimulation series deviated by no more than 15%. Only responses from stable recordings were used in the data analysis. In the analysis of whole nerve responses, the magnitudes of the integrated response at 20, 25, 30, 35. and 40 s after stimulus onset were measured and averaged to generate tonic responses: the tonic response represents the sustained nerve response to continuous tastant stimulation of taste receptor cells. The relative tonic response for each stimulus was obtained by normalization to the response from 0.1 M NH4Cl (the tonic response of NH4Cl was defined as 1.0). Student's t test was used for statistical analysis.

[2] = DEN, QUI and other bitter compounds

T1 sequence (P02699 whole entry): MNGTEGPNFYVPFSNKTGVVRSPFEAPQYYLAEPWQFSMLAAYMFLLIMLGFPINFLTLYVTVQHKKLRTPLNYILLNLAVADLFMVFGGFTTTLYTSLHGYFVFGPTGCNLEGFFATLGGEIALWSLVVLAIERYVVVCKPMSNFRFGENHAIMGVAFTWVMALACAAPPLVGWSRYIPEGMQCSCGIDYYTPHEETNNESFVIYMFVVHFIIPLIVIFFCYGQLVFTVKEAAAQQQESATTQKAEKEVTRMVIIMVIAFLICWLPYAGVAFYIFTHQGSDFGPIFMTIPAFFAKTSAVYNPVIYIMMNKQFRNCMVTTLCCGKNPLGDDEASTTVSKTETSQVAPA

Structure (SMILES): Nc1ncnc2c1ncn2[C@@H]1O[C@H](COP(=O)(O)O)[C@@H](O)[C@H]1O [AMP, adenosine 5′ monophosphate]
- inhibition of activation of transducin by rhodopsin (rhodopsin): does not inhibit; also recorded: did not inhibit
- shift of DEN dose-aversiveness curve (C57BL/6J mice; AMP 0.1, 1.0, 5.0 mM, FIG. 3B): shifted the dose-aversiveness curve to the right
- concentration at which AMP alone elicits behavioral responses (C57BL/6J mice; AMP alone, two-bottle preference, FIG. 3B): ≥ 0.5 mM
- inhibitory effect on aversive responses at highest concentration of DEN (C57BL/6J mice; DEN 5.0 mM, FIGS. 3A-B): eliminated; also recorded: overcame
- inhibition of aversive responses to DEN (C57BL/6J mice; DEN 0.05, 0.10, 0.50, 1.0 mM, inhibitor 0.1 and 1.0 mM, n=10, P<0.001, FIG. 3A): inhibited
- inhibition of behavioral (aversive) responses to bitter compounds, summary statement (C57BL/6J mice; [2]): blocks
- effect on behavioral responses to HCl (C57BL/6J mice; HCl 0.01 and 0.10 mM, 0.1 mM AMP, FIG. 3E): did not alter; also recorded: did not affect
- effect on behavioral responses to NaCl (C57BL/6J mice; NaCl 0.1 and 0.3 M, 0.1 mM AMP, FIG. 3E): did not alter; also recorded: did not affect
- inhibitory effect on aversive responses at highest concentration of QUI (C57BL/6J mice; QUI 1.0 mM, FIGS. 3C-D): eliminated; also recorded: overcame
- inhibition of aversive responses to QUI (C57BL/6J mice; QUI 0.05, 0.10, 0.50 mM, inhibitor 0.1 and 0.5 mM, n=10, P<0.001, FIG. 3C): inhibited
- effect on behavioral responses to SC45647 (C57BL/6J mice; SC45647 0.01 and 0.10 mM, 0.1 mM AMP, FIG. 3E): did not alter; also recorded: did not affect; also recorded: did not diminish
- inhibition of aversive responses to sparteine (SPA) (C57BL/6J mice; SPA 0.05 and 0.10 mM, 0.1 mM AMP, P<0.001, FIG. 3E): inhibited
- inhibition of aversive responses to (−)-epicatechin (C57BL/6J mice; epicatechin 0.05 and 0.10 mM, 0.1 mM AMP, P<0.01, FIG. 3E): inhibited
- shift of QUI dose-aversiveness curve (C57BL/6J mice; increasing concentrations of AMP, FIG. 3D): shifted the dose-aversiveness curve to the right
- effect on behavioral responses to sucrose (C57BL/6J mice; sucrose 5.0 and 150 mM, 0.1 mM AMP, FIG. 3E): did not alter; also recorded: did not affect
- inhibition of glossopharyngeal nerve responses to atropine ([1]; 1.0 mM ATR, inhibitor 0.1 mM, FIGS. 4A-C): significantly inhibited
- inhibition of glossopharyngeal nerve responses to sparteine ([1]; 1.0 mM SPA, inhibitor 0.1 mM, FIGS. 4A-C, 4I (P<0.001)): inhibits; also recorded: significantly inhibited
- inhibition of glossopharyngeal nerve responses to strychnine ([1]; 1.0 mM STR, inhibitor 0.1 mM, FIGS. 4A-C): significantly inhibited
- effect on glossopharyngeal nerve responses to SC45647 ([1]; 3.0 mM SC45647, 0.1 mM AMP, P<0.01, FIG. 4I): inhibits; also recorded: inhibited slightly; also recorded: did diminish
- inhibition of glossopharyngeal nerve responses to DEN ([1]; 5.0 mM DEN, inhibitor 0.1 mM, FIGS. 4A-C): significantly inhibited
- effect on glossopharyngeal nerve responses to HCl ([1]; 5.0 mM HCl, 0.1 mM AMP, FIG. 4I): did not affect
- effect on glossopharyngeal nerve responses to NH4Cl ([1]; 0.1 M NH4Cl, 0.1 mM AMP): did not affect
- effect on glossopharyngeal nerve responses to NaCl ([1]; 0.1 M NaCl, 0.1 mM AMP, FIG. 4I): did not affect
- effect on glossopharyngeal nerve responses to sucrose ([1]; 0.5 M sucrose, 0.1 mM AMP, FIG. 4I): did not affect
- inhibition of relative tonic glossopharyngeal responses to rising DEN concentrations ([1]; DEN 0.1, 0.5, 1.0, 5.0, 10.0 mM, AMP 0.1 and 1.0 mM, n=5 to 7, FIG. 4G): significantly inhibited
- inhibition of gustatory (glossopharyngeal) nerve responses to bitter compounds, summary statement [1, 2]: diminishes
- inhibition of relative tonic glossopharyngeal responses to rising QUI concentrations ([1]; QUI 0.1, 0.3, 1.0 mM, AMP 0.1 and 1.0 mM, n=6 to 8, FIG. 4H): significantly inhibited; also recorded: reached a plateau
- inhibition of glossopharyngeal nerve responses to QUI ([1]; QUI 0.1 and 1.0 mM, inhibitor 0.1 mM, FIGS. 4D-F): significantly inhibited
